Experimental findings from patent publication US20210395313A1, “PEPTIDE PAC1 ANTAGONISTS” (AMGEN INC., priority 2017, published 2021) are described below.

Bridges are numbered along the chain shown (N, C = ends). Where no end group is shown, it is not given here.

The conditions of data set [1]: rat plasma, 37° C., 0 h (baseline).
Experimental: (§1) To model degradation in blood, PAC1 peptides of the present application were incubated in vitro with rat plasma. The stability analysis was conducted in a manner similar to as previously described by Souverain et al. (J. of Pharmaceutical and Biomedical Analysis, 35 (2004) 913-920).
(§2) Briefly, PAC1 peptides were spiked into rat plasma and incubated at 37° C. for up to 6 hours. Employing the reverse stability technique for various time points, plasma samples were quenched by the addition of perchloric acid in water containing internal standard (IS) and vortexed undergoing protein precipitation extraction (PPE). Following the vortex mix, samples were centrifuged and the supernatant containing PAC1 peptide and IS was subsequently analyzed using a liquid chromatography mass-spectrometry (LC-MS) system (Sciex® API 5500). The peak area ratio of intact PAC1 peptide to IS was determined for each time point. Peptide stability was reported as a percentage of the peak area ratio at each time point relative to the peak are ratio of a baseline sample (pre-incubation).
A short description of the next data set: in vitro. The note with it: rat, plasma.
A further data set has as its target T1, human PAC1 receptor (Homo sapiens, UniProt P41586).
T1 construct: SHSY-5Y (human neuroblastoma cell line) and RG-2 (rat glioma cell line) cells endogenously express human and rat PAC1 receptors, respectively; endogenous in cells; host or cells: SHSY-5Y human neuroblastoma cells
T1 sequence (P41586 21-468): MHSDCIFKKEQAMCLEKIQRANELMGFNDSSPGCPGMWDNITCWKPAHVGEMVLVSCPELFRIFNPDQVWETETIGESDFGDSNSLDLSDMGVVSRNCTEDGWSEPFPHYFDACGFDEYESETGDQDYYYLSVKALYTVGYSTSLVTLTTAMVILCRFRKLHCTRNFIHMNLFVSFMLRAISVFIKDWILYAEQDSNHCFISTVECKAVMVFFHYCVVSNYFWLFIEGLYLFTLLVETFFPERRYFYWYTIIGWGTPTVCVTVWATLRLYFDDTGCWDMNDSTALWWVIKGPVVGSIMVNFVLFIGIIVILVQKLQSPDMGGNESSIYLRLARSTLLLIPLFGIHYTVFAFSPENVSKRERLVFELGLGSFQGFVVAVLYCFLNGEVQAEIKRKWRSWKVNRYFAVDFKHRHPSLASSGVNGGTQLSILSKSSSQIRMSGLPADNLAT
In words: LANCE Ultra cAMP accumulation antagonist assay in SHSY-5Y cells.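 Further: inhibition of cAMP accumulation evoked by PAC1 agonist at its EC80 in SHSY-5Y cells endogenously expressing receptor, 30 min preincubation then 15 min agonist, TR-FRET readout.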 Type of data set: cell-based.

Data set [2] deals with T2, rat PAC1 receptor (Rattus norvegicus, UniProt P32215).
T2 construct: SHSY-5Y (human neuroblastoma cell line) and RG-2 (rat glioma cell line) cells endogenously express human and rat PAC1 receptors, respectively; endogenous in cells; host or cells: RG-2 rat glioma cells
T2 sequence (P32215 20-523): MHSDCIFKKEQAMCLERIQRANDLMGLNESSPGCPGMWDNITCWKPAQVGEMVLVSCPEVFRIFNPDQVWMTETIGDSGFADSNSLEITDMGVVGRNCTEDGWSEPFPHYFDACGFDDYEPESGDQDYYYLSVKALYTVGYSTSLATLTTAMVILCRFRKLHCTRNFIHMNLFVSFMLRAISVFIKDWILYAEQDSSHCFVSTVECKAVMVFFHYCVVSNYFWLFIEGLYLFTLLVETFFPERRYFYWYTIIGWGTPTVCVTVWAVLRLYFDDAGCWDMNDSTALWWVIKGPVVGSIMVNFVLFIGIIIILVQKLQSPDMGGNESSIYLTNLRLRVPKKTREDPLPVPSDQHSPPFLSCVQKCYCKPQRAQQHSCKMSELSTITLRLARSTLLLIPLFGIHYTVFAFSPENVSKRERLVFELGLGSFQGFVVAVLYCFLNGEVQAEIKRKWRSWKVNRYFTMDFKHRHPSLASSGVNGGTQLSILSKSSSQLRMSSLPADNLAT
Briefly: LANCE Ultra cAMP accumulation antagonist assay in RG-2 cells.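 Further: RG-2 rat glioma cells endogenously expressing PAC1, test peptide preincubated 30 min, then PAC1 agonist added at its EC80 for 15 min, cAMP accumulation read by LANCE Ultra.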 It counts as cell-based. On the technique in general: In TR-FRET formats the signal depends on donor and acceptor labels being close together.

The target in the next data set is T3, PAC1 (Rattus norvegicus, UniProt P32215).
T3 construct: Naive male Sprague Dawley® rats aged 8-12 weeks at the time of the study were purchased from Charles River Laboratories; tissue Charles River Laboratories; host or cells: live male Sprague Dawley rats; dermal blood flow on abdominal skin
T3 sequence (P32215 20-523): T2 sequence (P32215 20-523)
Briefly: Rat maxadilan-induced increase in blood flow (MIIBF) PD model, laser Doppler imaging. Type of data set: in vivo. Here is the method:
PAC1 peptide antagonists were also evaluated in an in vivo pharmacodynamic model—a model of maxadilan-induced increase in blood flow.
Naive male Sprague Dawley® rats aged 8-12 weeks at the time of the study were purchased from Charles River Laboratories. Animals were group-housed in non-sterile, ventilated micro-isolator housing in Amgen Assessment and Accreditation of Laboratory Animal Committee (AAALAC)-accredited facility. Animals had ad libitum access to pelleted feed (Harlan Teklad 2020X, Indianapolis, IN) and water (on-site generated reverse osmosis) via automatic watering system.
All PAC1 peptides were tested in a rat maxadilan-induced increase in blood flow (MIIBF) pharmacodynamic (PD) model with a laser Doppler imaging. A dosing solution of maxadilan (Bachem, H6734.0500) was prepared fresh daily by diluted maxadilan stock solution (0.5 mg/mL) in 1× PBS to the final concentration of 0.5 μg/mL. All tested peptides were prepared in 1× PBS at different concentrations depend on the dose required for the experiment and given in a single bolus i.v. or s.c. injection. A laser Doppler imager (LDI-2, Moor Instruments, Ltd, Wilmington, Del.) was used to measure dermal blood flow (DBF) on the shaved skin of the rat abdomen with a low-power laser beam generated by a 633 nm helium-neon bulb. The measurement resolution was 0.2 to 2 mm, with scanning distances between the instrument aperture and the tissue surface of 30 cm. In this report, DBF was measured and expressed as % change from baseline [100×(individual post-CAP flux-individual baseline flux)/individual baseline flux] and further calculated to % Inhibition to quantify the magnitude of drug effect [Mean of vehicle % change from BL−individual drug treated rat % change from BL)/Mean of vehicle % change from BL].
On the test day, following anesthetization with propofol, the rat's abdominal area was shaved and each animal was placed in a supine position on a temperature-controlled circulating warm-water pad to maintain a stable body temperature during the study. After a 10 to 15 minute stabilization period, a rubber O-ring (0.925 cm inner diameter, O-Rings West, Seattle, Wash.) was placed on the rat abdomen without directly positioning it over a visible blood vessel while the rat placed in a supine position on a temperature-controlled circulating warm-water pad to maintain a stable body temperature during the study. After placement of an O-ring on the selected area, a baseline (BL) DBF measurement was taken. After the BL scan, PAC1 peptides were administrated either 5 min for i.v., or 15 min for s.c. then followed by 20 μL (in 0.5 μg/mL) intradermal injection of maxadilan at the center of the O-ring. The post-maxadilan DBF was measured at 30 min and the post peptides time was 35 min for i.v. and 45 min for s.c. respectively. The O-ring serves as an area of interest in which the DBF will be analyzed within the O-ring.
All DBF results were expressed as the mean±SEM. A one-way ANOVA followed by Dunnett's Multiple Comparison Test (MCT) was used to assess the statistical significance of PAC1 peptides effects relative to the vehicle within the study. A p<0.05 was used to determine significance between any two groups.

The target of data set [3] is T4, rat PAC1 receptor (rat, UniProt P32215 20-523).
T4 sequence: T2 sequence (P32215 20-523)
In words: cell-based or functional assay.
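Wherever % Intact Peptide Remaining is given: peptides incubated in vitro in rat plasma at 37 °C up to 6 h, intact peptide quantified by LC-MS versus internal standard, expressed relative to pre-incubation baseline (100%).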

Experimental for in vitro: as §1, §2

In the case of “CDATCQFRKAIDDCHLLAWHANVPGSVFKACMKQKKKEFKAG-NH2 (disulfide 1-5, 14-31) [SEQ ID NO 140]”, the “% Intact Peptide Remaining” value in data set [1] is 100%. Also, in the data set “in vitro”, the amount remaining at 0.5 h worked out at 101%, the amount remaining at 1 h was found to be 91.4%, the share remaining at 2 h came to 93.4% and the share remaining at 4 h is 107%. The amount remaining at 6 h in “in vitro” turned out to be 108%.

Consider “CDATCQFRKAIDDCQKQAHHSNVPGSVFKACMKQKKKEFKAGY (disulfide 1-5, 14-31) [SEQ ID NO 164]”, for which the “% Intact Peptide Remaining” value in data set [1] is reported as 100%. In addition, in “in vitro”, the amount remaining at 0.5 h came to 94.3%, the fraction remaining at 1 h was determined as 113%, the fraction remaining at 2 h was 108% and the amount remaining at 4 h amounted to 106%. In addition, the fraction remaining at 6 h in the data set “in vitro” was found to be 96.5%.

As to “CDATCQFRKAIDDCARQAHHSNVPGSVFKACMKQKKKEWKAGH (disulfide 1-5, 14-31) [SEQ ID NO 151]”, at human PAC1 receptor, the IC50 was in the range of 0.01 to 1 nM. Moreover, in data set [1], the “% Intact Peptide Remaining” value is given as 100%. On rat PAC1 receptor [2], the 50% inhibitory concentration (IC50) was 0.01 to 1 nM. Further, in the data set “in vitro”, the share remaining at 0.5 h was determined as 120%, the share remaining at 1 h came to 87%, the amount remaining at 2 h stood at 104% and the fraction remaining at 4 h came to 112%. Also, in “in vitro”, the fraction remaining at 6 h is 107%.

Regarding “CDATCQFRKAIDDCYYRSWHSNVPGSVFKACMKQKKKEWKAG-NH2 (disulfide 1-5, 14-31) [SEQ ID NO 77]”, the IC50 against human PAC1 receptor lay in the range of 0.01 to 1 nM. Besides, on PAC1 (single bolus s.c., lowest dose of 0.3 mg/kg, 15 min prior to maxadilan, 45 min post peptide treatment), the “inhibition of maxadilan-induced increase in DBF” value is “statistically significant inhibition”. Moreover, the “% Intact Peptide Remaining” value in data set [1] came out at 100%. The molecule further yielded an IC50 against rat PAC1 receptor [2] of 0.01 to 1 nM. For the same molecule, in the data set “in vitro”, the share remaining at 0.5 h turned out to be 97.9%, the amount remaining at 1 h turned out to be 106%, the share remaining at 2 h was determined as 104% and the fraction remaining at 4 h worked out at 89.6%. The share remaining at 6 h in “in vitro” was 110%.

At human PAC1 receptor, `CC[C@H](C)[C@H](NC(=O)[C@H](C)NC(=O)[C@H](CCCCN)NC(=O)[C@H](CCCNC(=N)N)NC(=O)[C@H](Cc1ccccc1)NC(=O)[C@H](CCC(N)=O)NC(=O)[C@@H]1CSSC[C@H](N)C(=O)N[C@@H](CC(=O)O)C(=O)N[C@@H](C)C(=O)N[C@@H]([C@@H](C)O)C(=O)N1)C(=O)N[C@@H](CC(=O)O)C(=O)N[C@@H](CC(=O)O)C(=O)N[C@H]1CSSC[C@@H](C(=O)N[C@@H](CCSC)C(=O)N[C@@H](CCCCN)C(=O)N[C@@H](CCC(N)=O)C(=O)N[C@@H](CCCCN)C(=O)N[C@@H](CCCCN)C(=O)N[C@@H](CCCCN)C(=O)N[C@@H](CCC(=O)O)C(=O)N[C@@H](Cc2ccccc2)C(=O)N[C@@H](CCCCN)C(=O)N[C@@H](C)C(=O)NCC(N)=O)NC(=O)C(C)(C)NC(=O)[C@H](CCCCN)NC(=O)[C@H](Cc2ccccc2)NC(=O)[C@H](C(C)C)NC(=O)[C@H](CO)NC(=O)CNC(=O)[C@@H]2CCCN2C(=O)[C@H](C(C)C)NC(=O)[C@H](CC(N)=O)NC(=O)[C@H](CO)NC(=O)[C@H](Cc2c[nH]cn2)NC(=O)[C@H](Cc2c[nH]cn2)NC(=O)[C@H](C)NC(=O)[C@H](CCC(N)=O)NC(=O)[C@H](CCCCN)NC(=O)[C@H](CCC(N)=O)NC1=O` [SEQ ID NO 283] had an IC50 of 1 to 100 nM. The “inhibition of MIIBF (dermal blood flow)” value against PAC1 (single bolus i.v., lowest dose of 0.1 mg/kg, 5 min prior to maxadilan, 35 min post peptide treatment) is “statistically significant inhibition”. For the same molecule, the “% Intact Peptide Remaining” value in data set [1] worked out at 100%. Further, on rat PAC1 receptor [2], the concentration for half-maximal inhibition (IC50) lay within 0.01 to 1 nM. In “in vitro”, the amount remaining at 0.5 h was found to be 87.5%, the share remaining at 1 h amounted to 112%, the share remaining at 2 h came to 101% and the amount remaining at 4 h worked out at 115%. Also, in “in vitro”, the amount remaining at 6 h was 98.9%.

On to “CDATCQFRKAIDDCYYYAMHSNVPGSVWKACMKQKKKEFKAG-NH2 (disulfide 1-5, 14-31) [SEQ ID NO 150]”, for which the “% Intact Peptide Remaining” value in data set [1] is recorded as 100%. For the same molecule, in the data set “in vitro”, the share remaining at 0.5 h was determined as 117%, the fraction remaining at 1 h was found to be 89.7%, the fraction remaining at 2 h was 92.1% and the amount remaining at 4 h was 90.2%. Moreover, in “in vitro”, the share remaining at 6 h amounted to 92.8%.

At human PAC1 receptor, “GCDATCQFRKAIDDCVRQAHHSNVPGSVFKACMKQKKKEWKAGH (disulfide 2-6, 15-32) [SEQ ID NO 88]” displayed an IC50 of 0.01 to 1 nM. The “% Intact Peptide Remaining” value in data set [1] is 100%. At rat PAC1 receptor [2], this molecule registered a half-inhibitory concentration (IC50) of 0.01 to 1 nM. Besides, in the data set “in vitro”, the share remaining at 0.5 h came to 81.4%, the amount remaining at 1 h turned out to be 90.8%, the share remaining at 2 h was 84% and the fraction remaining at 4 h was determined as 110%. Moreover, in “in vitro”, the fraction remaining at 6 h stood at 100%.

With CDATCQFRKAIDDCARQAYHSFKACMKQKKKEWKAH (disulfide 1-5, 14-25) [SEQ ID NO 451], the “rPAC1 IC50 with maxadilan challenge (cAMP assay, RG-2 cells); 100 nM > B ≥ 1 nM” value (shortened to “rPAC1 IC50 with maxadilan challenge”) with rat PAC1 receptor [3] is below 100 nM.

With CDATCQFRKAIDDCARQAYHSACMKQKKKEWKAGH (disulfide 1-5, 14-23) [SEQ ID NO 449], the “rPAC1 IC50 with maxadilan challenge” value with rat PAC1 receptor [3] was below 100 nM.

For CDATCQFRKAIDDCARQAYHSFKACMKQKKKEWKH (disulfide 1-5, 14-25) [SEQ ID NO 450], the “rPAC1 IC50 with maxadilan challenge” value with rat PAC1 receptor [3] is below 100 nM.

A word on the IC50: it is the concentration needed to halve the response being measured. A higher IC50 goes with lower potency.
